Laboratory results published in patent US12016922B2, “Stabilized aqueous antibody compositions” (Arecor Limited, priority 2012, dated 2024).

Legend:
rituximab [1] = assay: Visual assessment of rituximab formulations on storage; type: physicochemical; conditions: rituximab 100 mg/ml, trehalose 200 mM
Procedure: (§1) In order to prepare the formulations for testing, it was necessary to remove the original excipients and replace them with the selected excipients. The following procedure was used to prepare the formulations for testing: Original compositions were removed from the manufacturer's container and dialysed in 3.5 kDa cut-off dialysis cassettes (Thermo Pierce) at 2-8° C., using three changes for a minimum of 4 hours in each, including one overnight incubation.
(§2) The background solutions, containing the new excipients and adjusted to the required pH, were added to the dialysed proteins to achieve the required concentration of excipients and the protein in the final composition. The formulated samples were placed into storage at 40° C. or at 5° C., and stability was tested after a given period of time. The stability of the proteins was tested in compositions containing oligomers of ethyleneimine and compared to a ‘Control formulation’ with identical background in the absence of the oligomers.
Vials are placed in a suitable location with a suitably selected contrasting background, and under sufficient and appropriate illumination to highlight any potential or detected visual deviations. A control (or freshly prepared material) is placed alongside for direct comparison. Solutions are classed as clear if there are no visual imperfections; as cloudy if there is a significant change in the opacity of the material; and if there are insoluble fractions, or if particles are visible towards the bottom of the vial, a precipitate is deemed to have been formed.
(§3) Rituximab was formulated at 100 mg/ml in the following background solution: EDTA (0.2 mM), methionine (1 mM), histidine (10 mM). The pH was adjusted to 6.5.

rituximab [2] = assay: Aggregation of rituximab formulations on storage, % HMWS by size exclusion chromatography; type: physicochemical; conditions: for % HMWS 0 weeks / % HMWS 12 weeks / % HMWS 8 weeks / % HMWS T0: rituximab 100 mg/ml; for % HMWS 8 weeks / % HMWS T0: trehalose 200 mM
Procedure: Formulations of protein therapeutics, rituximab and certolizumab pegol, were prepared either in the absence or in the presence of various oligomers of ethyleneimine. The following products were used as the starting material: MabThera® (rituximab) and Cimzia® (certolizumab pegol). The compositions of the two products are as follows:
as §1, §2
The amount of high molecular weight species is measured using a 300×7.8 mm S3000 (or equivalent) size-exclusion column with a guard column. The mobile phase is potassium phosphate pH 6.5, with a flow rate of 0.4 ml/min, injection volume of 1 μl and detected at 210 and 280 nm. The results are expressed as % high molecular species (HMWS), i.e. sum of all peak areas corresponding to aggregated protein over the sum of all protein-related peaks on the chromatogram. […] However, within a given time-point the samples are tested using the column in the same condition, so the values generated within the time-point represent a very good indication of the relative stability of the protein in the compositions tested.
as §3
Rituximab was formulated at 100 mg/ml in the following background solution: EDTA (0.2 mM), methionine (1 mM), histidine (10 mM), in the presence of arginine (80 mM) as a tonicity modifier. The pH of all formulations was adjusted to 6.5. For comparison, the formulation of commercial liquid rituximab product (‘Original formulation’ also with rituximab at 100 mg/ml) was also included.
Rituximab was formulated at 100 mg/ml in the following background solution: EDTA (0.2 mM), methionine (1 mM) histidine (10 mM) and trehalose (200 mM). The pH was adjusted to 6.5.
Rituximab was formulated at 140 mg/ml in the following background solution: EDTA (0.2 mM), methionine (1 mM), histidine (10 mM) and trehalose (200 mM). The pH was adjusted to 6.5.

[3] = pH 6.5, 5° C., additive 0.1 mg/ml
[4] = pH 6.5, 5° C., additive 0.5 mg/ml
[5] = pH 6.5, 5° C., additive 2.5 mg/ml
[6] = pH 6.5, 40° C., additive 0.1 mg/ml
[7] = pH 6.5, 40° C., additive 0.5 mg/ml
[8] = pH 6.5, 40° C., additive 2.5 mg/ml
[9] = arginine 80 mM, pH 6.5, 40° C., additive 0.1 mg/ml
[10] = arginine 80 mM, pH 6.5, 40° C., additive 0.5 mg/ml
[11] = arginine 80 mM, pH 6.5, 40° C., additive 2.5 mg/ml

## Cl.Cl.Cl.Cl.Cl.NCCNCCNCCNCCN [Tetraethylenepentamine, tetraethylenepentamine pentahydrochloride]
Rituximab [1]; [3]
  Visual (8 weeks): Clear
Rituximab [1]; [4]
  Visual (8 weeks): Clear
Rituximab [1]; [5]
  Visual (8 weeks): Clear
Rituximab [1]; [6]
  Visual (8 weeks): Clear
Rituximab [1]; [7]
  Visual (8 weeks): Clear
Rituximab [1]; [8]
  Visual (8 weeks): Clear
Rituximab [2]; Example 1: rituximab 100 mg/ml, trehalose, pH 6.5, 40° C. and 5° C.
  effect on the rate of formation of HMWS: reduce considerably the rate of formation of HMWS
Rituximab [2]; Example 3: rituximab 100 mg/ml, arginine 80 mM, pH 6.5, 40° C., compared with background solutions without oligomer
  effect on the rate of formation of HMWS: reduce considerably the rate of formation of HMWS
Rituximab [2]; [9]
  % HMWS 0 weeks: 1.58%
  % HMWS 12 weeks: 2.08%
Rituximab [2]; [10]
  % HMWS 0 weeks: 1.53%
  % HMWS 12 weeks: 1.89%
Rituximab [2]; [11]
  % HMWS 0 weeks: 1.47%
  % HMWS 12 weeks: 0.85%
Rituximab [2]; [3]
  % HMWS 8 weeks: 1.23%
  % HMWS T0: 1.40%
Rituximab [2]; [4]
  % HMWS 8 weeks: 1.22%
  % HMWS T0: 1.44%
Rituximab [2]; [5]
  % HMWS 8 weeks: 1.21%
  % HMWS T0: 1.40%
Rituximab [2]; [6]
  % HMWS 8 weeks: 1.79%
  % HMWS T0: 1.40%
Rituximab [2]; [7]
  % HMWS 8 weeks: 1.85%
  % HMWS T0: 1.44%
Rituximab [2]; [8]
  % HMWS 8 weeks: 1.45%
  % HMWS T0: 1.40%
